The subject of experiment [1] is primary human macrophages. Description: Cytokine synthesis by primary human macrophages stimulated with FBG peptides. The note with it: 1 or 20 μM peptide, 24 h (IL8, FIG. 17). It counts as cell-based. Here is the method:
(§1) After incubation the tissue was pipetted through a nylon mesh into a sterile beaker. The cells were then washed three times in complete medium (RPMI 1640 supplemented with 10% FCS). RA synovial fibroblasts were isolated from the mixed population of RA membrane cells by selection in DMEM (Bio-Whittaker) supplemented with 10% FBS, […], 100 U/ml penicillin, and streptomycin. Human monocytes were isolated from peripheral blood (London Blood Bank) and macrophages were derived from monocytes after differentiation for 4 days with 100 ng/ml of M-CSF.
(§2) Macrophages were cultured at 1×10^5 cells/well in RPMI 1640 containing 5% (v/v) FBS and 100 U/ml penicillin/streptomycin in 96-well tissue culture plates for 24 h before stimulation. Cells were incubated for 24 h at 37° C. with no addition, 1.0 μM FBG, 1 ng/ml LPS or 1 or 20 μM FBG peptide. Where stated, cells were pre-incubated with 20 μM FBG peptides for 15 min.
(§3) Supernatants were examined for the presence of the cytokines TNF-α, IL-6, and IL-8 by enzyme-linked immunosorbent assay (ELISA) according to the manufacturer's instructions (R&D systems). Absorbance was read on a spectrophotometric ELISA plate reader (Labsystems Multiscan Biochromic, Vantaa, Finland) and analyzed using the Ascent software program (Thermo Labsystems, Altrincham, UK).

The subject of another experiment is human macrophages. Description: FBG or LPS induced cytokine synthesis in human macrophages pre-incubated with FBG peptides. The class given is cell-based. Particulars: pre-incubated with 20 μM peptide for 15 min; for FBG mediated cytokine synthesis (block): then 1.0 μM FBG 24 h. Here is the method:
as §1, §2, §3

The subject of the next experiment is RA membrane cells. Description: Blockade of spontaneous cytokine synthesis in RA synovial membrane cultures by FBG peptides. The class given is cell-based, human. Particulars: for inhibition of cytokine synthesis: highest concentrations, dose dependent (25, 100 or 250 μM, TNF & IL8, FIG. 16); for TNF and IL8 synthesis (inhibition): spontaneous cytokine synthesis, 24 h with peptide. Here is the method: RA membrane cells (representing a mixed population of all synovial cell types) were isolated from synovial membranes obtained from patients undergoing joint replacement surgery (Brennan (1989)). Synovial membrane tissue was digested in RPMI 1640 (GIBCO) containing 5% fetal calf serum (FCS) (GIBCO), 5 mg/ml collagenase type IV (Sigma) and 0 15 mg/ml DNAse type I (Sigma) and incubated at 37° C. for 2 h.
Immediately after isolation, RA membrane cells were cultured at 1×10^5 cells/well in RPMI 1640 containing 10% (v/v) FBS and 100 U/ml penicillin/streptomycin in 96-well tissue culture plates. Cells were incubated for 24 h at 37° C. with no addition, buffer control (PBS, 1% BSA, 0.01% NaN3), or with 25 μm, 100 μM or 250 μM of each FBG spanning peptide.
as §3

For experiment [2], the system named is human macrophages and RA synovial fibroblasts. Description: Ligand induced cytokine synthesis after pre-incubation with function blocking antibodies or inhibitors. The class given is cell-based. The note with it: 10 μg/ml IL1 receptor antagonist pre-incubation. Here is the method: (§4) Cells were incubated for 24 hours at 37° C. with the indicated doses of tenascin-C and recombinant tenascin-C fragments (1.0 μM-1.0 nM). Cells were also stimulated where indicated with LPS (1 ng/ml for human macrophages, 10 ng/ml for human fibroblasts, RA membrane cells and HEKs, 100 ng/ml for MEFS and BMDMs and 10 ng/ml for HEKS), PAM3 (10 ng/ml for human macrophages, human fibroblasts, and HEKs, 100 ng/ml for MEFs and BMDMs), murine IL-1 (5 ng/ml for MEFS) and murine TNF-α (100 ng/ml for MEFS). Unless specifically stated otherwise rough LPS was used for in vitro studies.
(§5) Where stated, cells were pre-incubated with 10 μg/ml anti-CD14 antibody, 10 μg/ml IL1 receptor antagonist, 10 μg/ml anti-TLR2 antibody, 25 μg/ml anti-TLR4 antibody, 10 or 25 μg/ml isotype control antibody, 25 μg/ml polymyxin B, or 1 μg/ml msbB LPS, for 30 minutes at 37° C. before stimulation. Where stated, recombinant tenascin-C and FBG, and LPS were boiled for 15 minutes before addition to cells
(§6) Supernatants were subsequently examined for the presence of the cytokines TNF-α, IL-6, and IL-8 by enzyme-linked immunosorbent assay (ELISA) according to the manufacturer's instructions. Absorbance was read on a spectrophotometric ELISA plate reader (Labsystems Multiscan Biochromic, Vantaa, Finland) and analyzed using the Ascent software program (Thermo Labsystems, Altrincham, UK).

In experiment [3] the test system is MyD88 deficient mouse embryonic fibroblasts. Description: Cytokine synthesis in mouse embryonic fibroblasts from MyD88 deficient mice. The class given is cell-based. Particulars: 24 h; FBG 1 μM, PAM3, LPS, TNFα 100 ng/ml, IL-1 5 ng/ml.
Source text: (§7) Homozygous MyD88 deficient mice on a C57BL/6 background were provided by the Sanger Institute (Cambridge, UK). Age matched congenic inbred wild type C57B/L6 mice were obtained from Charles River (Margate, UK). For isolation of mouse embryo fibroblasts one female aged 8-10 weeks was mated with two males aged 8-10 weeks. For isolation of bone marrow derived macrophages mice were female and between 10-12 weeks of age at the time of experimentation.
MEFs express high levels of mRNA of all 9 murine TLRs and are specifically and highly responsive to TLR ligand activation. […] Fibroblasts were cultured at 2×10^4 cells/well in DMEM containing 10% (v/v) FBS and 100 U/ml penicillin/streptomycin in 96-well tissue culture plates for 24 hours before stimulation.
as §4, §6

For experiment [4], the system named is TLR2 or TLR4 deficient embryonic fibroblasts and bone marrow derived macrophages. The experiment can be described thus: Cytokine synthesis in embryonic fibroblasts and macrophages from TLR2 or TLR4 deficient mice. The class given is cell-based, mouse. Particulars: 24 h.
Source text: as §7, with “Homozygous TLR2 and TLR4 deficient mice on a C57BL/6 background (an inbred strain of mice with a black coat) were obtained from B&K Universal (Hull, UK) Hoshino (1999) and Takeuchi (1999). Homozygous” for “Homozygous”
MEFs express high levels of mRNA of all 9 murine TLRs and are specifically and highly responsive to TLR ligand activation. […] MEFs were isolated from d13 embryos harvested from age-matched, pregnant female wild type, TLR2, TLR4 and null mice (as described in Todaro (1963)). Fibroblasts were cultured at 2×10^4 cells/well in DMEM containing 10% (v/v) FBS and 100 U/ml penicillin/streptomycin in 96-well tissue culture plates for 24 hours before stimulation.
BMDMs were derived by aspirating the femurs of age matched female wild type, TLR2 and TLR4 null mice as described in Butler (1999)) and culturing the cells for 7 days in DMEM, 20% (v/v) FBS, 10 ml/L (v/v) antibiotic-antimycotic solution PSA, 50 μM Mercaptoethanol and 10 ng/ml M-CSF. Macrophages were then cultured at 1×10^5 cells/well in DMEM, 20% (v/v) FBS, 10 ml/L (v/v) antibiotic-antimycotic solution PSA, 50 μM β-Mercaptoethanol in 96-well tissue culture plates for 24 hours before stimulation.
as §4, §6

Experiment [5] has as its system primary human macrophages. Description: Cytokine synthesis in primary human macrophages stimulated with tenascin-C or its domains. The class given is cell-based. Here is the method:
Human monocytes were isolated from peripheral blood (London Blood Bank) and macrophages were derived from monocytes after differentiation for 4 days with 100 ng/ml of M-CSF as previously described (Foxwell (1998)).
(§8) Immediately after isolation, RA membrane cells and macrophages were cultured at 1×10^5 cells/well in RPMI 1640 containing 10% (v/v) FBS and 100 U/ml (Units/ml) penicillin/streptomycin in 96-well tissue culture plates for 24 hours before stimulation. Synovial fibroblasts (used only at either passage number 2 or 3) were cultured at 1×10^4 cells/well in DMEM containing 10% (v/v) FBS and 100 U/ml penicillin/streptomycin in 96-well tissue culture plates for 24 hours before stimulation.
as §4, §5, §6

Another experiment concerns RA synovial fibroblasts. The experiment can be described thus: Cytokine synthesis in RA synovial fibroblasts stimulated with tenascin-C, FBG or LPS. The class given is cell-based, human. The note with it: 24 h.
Source text: RA membrane cells (representing a mixed population of all synovial cell types) were isolated from synovial membranes obtained from patients undergoing joint replacement surgery as previously described (Brennan (1989)). RA synovial fibroblasts were isolated from the mixed population of RA membrane cells as previously described (Brennan (1989)). The study was approved by the local Trust ethics committee (Riverside NHS Research Committee), and waste tissue (synovium after joint replacement surgery) was obtained only after receiving signed informed consent from the patient and anonymyzing the tissue to protect patient identity.
as §8, §4, §5, §6

As for “ELRVDLRDHGETAFAVYDKFSVGDAKTRYK [Peptide 5]”, the “cytokine synthesis (induction)” value in experiment [1] is “induced cytokine synthesis in a dose dependent manner”. The “FBG mediated cytokine synthesis (block)” value in the experiment on human macrophages is given as “specifically blocked”. Besides, the “effect on TNF synthesis” value in the experiment on RA membrane cells (RA membrane cells, 24 h) was “no effect”. Besides, the “maximal inhibition of IL8 synthesis” value in the experiment on RA membrane cells (RA membrane cells, dose dependent) worked out at 81%.

Turning to “IL-1 receptor antagonist: IL-1 receptor antagonist from R&D Systems”, in experiment [2], the “inhibition of FBG induction of cytokines” value is listed as “did not inhibit”.

With “KTRYKLKVEGYSGTAGDSMAYHNGRSFST [Peptide 6]”, the “cytokine synthesis (induction)” value in experiment [1] is on record as “induced cytokine synthesis in a dose dependent manner”.

For the molecule Pam3Cys-Ser-Lys4 [reference compound], the “cytokine synthesis in embryonic fibroblasts with targeted deletion of MyD88” value (“cytokine synthesis … of MyD88” for short) in experiment [3] was “abolished”. Besides, in experiment [4], the “cytokine synthesis in cells from TLR2 deficient mice” value was “unresponsive” and the “cytokine synthesis in cells from TLR4 deficient mice” value is “did respond”.

In the case of “TIGLLYPFPKDCSQAMLNGDTTSGLYTIYL [Peptide 1]”, the “cytokine synthesis (induction)” value in experiment [1] was “induced cytokine synthesis in a dose dependent manner”.

In the case of TNF-α [reference compound], in experiment [3], the “cytokine synthesis … of MyD88” value is given as “unaffected”.

With “WIVFLRRKNGRENFYQNWKAYAAGFGDRRE [Peptide 3]”, in the experiment on RA membrane cells, the “inhibition of cytokine synthesis” value is given as 95%; the “TNF and IL8 synthesis (inhibition)” value is on record as “inhibited”.

“WYRNCHRVNLMGRYGDNNHSQGVNWFHWKG [Peptide 8]”: in the experiment with human macrophages (then 1 ng/ml LPS 24 h), the “cytokine synthesis in response to LPS (block)” value is “blocked”. Further, in the experiment with human macrophages, the “FBG mediated cytokine synthesis (block)” value is given as “blocked”. Besides, in the experiment on RA membrane cells, the “inhibition of cytokine synthesis” value is 56%; the “TNF and IL8 synthesis (inhibition)” value is recorded as “inhibited”.

“tenascin-C: recombinant full-length human tenascin-C purified from HEK293 conditioned medium”: in experiment [5] (1.0 μM-1.0 nM, 24 h), the “production of TNF-α, IL-6 and IL-8 in human macrophages” value is on record as “dose dependently stimulated”. Further, the “cytokine stimulation: heat sensitivity and effect of polymyxin B” value in experiment [5] (boiled 15 minutes, 25 μg/ml polymyxin B pre-incubation, human macrophages and synovial fibroblasts) was “heat sensitive and unaffected by the LPS inhibitor, polymyxin B”. In the experiment on RA synovial fibroblasts, the “TNF-α synthesis in fibroblasts” value was “Neither LPS nor tenascin-C induced”. In the experiment on RA synovial fibroblasts (LPS 10 ng/ml), the “IL-6 synthesis in RA synovial fibroblasts” value is “only induced IL-6 synthesis” and the “IL-8 synthesis in RA synovial fibroblasts” value is on record as “only induced IL-6 synthesis”.

B1: IL-1: murine IL-1 used to stimulate MEFs (protein, UniProt P10749 118-269, looked up)
Interleukin-1 beta: VPIRQLHYRLRDEQQKSLVLSDPYELKALHLNGQNINQQVIFSMSFVQGEPSNDKIPVALGLKGKNLYLSCVMKDGTPTLQLESVDPKQYPKKKMEKRFVFNKIEVKSKVEFESAEFPNWYISTSQAEHKPVFLGNNSGQDIIDFTMESVSS
Regarding B1, the “cytokine synthesis … of MyD88” value in experiment [3] was “abolished”. Further, in experiment [4], the “cytokine synthesis in cells from TLR2 deficient mice” value is reported as “responsive” and the “cytokine synthesis in cells from TLR4 deficient mice” value is on record as “did respond”.
